Like-named read-outs stand apart in the source and are kept apart here. Non-standard residues stand in square brackets, D forms with d. Residues, ends and D or L forms follow the SMILES beside them. *: point of attachment. Sta = CC(C)C[C@H](N)[C@@H](O)CC(=O)O; Isovaleryl = CC(C)CC(=O)*
Legend:
[1] = system: peak I secretory protease of C. albicans ATCC 32354; test: Dns-ISEVNLDAEFR-amide cleavage by mono-Q peak I protease (HPLC, fluorimetric); assay type: biochemical; settings: peak I enzyme
Procedure: (§1) The proteases secreted by C. albicans ATCC 32354 also hydrolyzed the fluorescent peptide Dns-Ile-Ser-Glu-Val-Asn-Leu-Asp-Ala-Glu-Phe-Arg-amide (SEQ ID NO: 4), abbreviated Dns-ISEVNLDAEFR-amide. Aliquots of the protease-containing fractions recovered from mono-Q chromatography described in Example 1 (2 to 10 μl) were incubated with 30 μM final concentration of the fluorescent substrate Dns-ISEVNLDAEFR-amide at 37° C. in 60 μl 50 mM sodium citrate buffer of pH 4.4 for 15 minutes, after which reactions were terminated by addition of 50 μM pepstatin A in 33% v/v methanol to 10 μM final concentration, and set aside for HPLC analysis. […] Unconverted Dns-ISEVNLDAEFR-amide (RT=5.55 min) and fluorescent products eluting at 4.2 min (Dns-Ile-Ser-Glu-Val-Asn-Leu (SEQ ID NO: 5), and 3.0 min (unidentified), were resolved and detected fluorimetrically.
(§2) The secretory aspartic proteases produced by other pathogenic C. albicans strains and Candida sp. are inhibitable by pepstatin A and are therefore of the aspartyl class. To determine if the peak I, II, or III protease activities secreted by ATCC 32354 were also of the aspartyl class, their susceptibility to inhibition by pepstatin A was determined. […]

[2] = system: peak II secretory protease of C. albicans ATCC 32354; test: Dns-ISEVNLDAEFR-amide cleavage by mono-Q peak II protease (HPLC, fluorimetric); assay type: biochemical
Procedure: as §1, §2

[3] = system: peak III secretory protease of C. albicans ATCC 32354; test: Dns-ISEVNLDAEFR-amide cleavage by mono-Q peak III protease (HPLC, fluorimetric); assay type: biochemical; settings: peak III enzyme, read-out: I.C.50 Pepstatin
Procedure: as §1, §2

C. albicans ATCC 32354 [4] = test: Growth of C. albicans in culture (A660nm); assay type: cell-based
Procedure: To study the effects of pepstatin A on growth of C. albicans, 0.1 ml of an overnight C. albicans culture was used to inoculate 10 ml cultures of either 1) YCB/BSA, or 2) a YD medium (0.2% yeast extract, 2% glucose) that contained 40 mM ammonium chloride. Pepstatin A was included in the cultures at final concentrations ranging between 0 and 10 μM (administered from a 50 μM aqueous stock). Growth of cultures at 30° C. was monitored by following A660nm. The growth of ATCC 32354 in YCB/BSA was inhibited about 90% by 2 μM pepstatin A (table II). This effect of pepstatin was fungistatic as resuspension of arrested cells in fermentation medium devoid of pepstatin A restored cell growth. […] Since ammonium chloride both removes dependence on, and suppresses the production of the secretory acid proteases, the mechanism of pepstatin inhibition action is likely to involve protease inhibition.

C. albicans ATCC 32354 [5] = test: Formation of hyphae in culture (Gram stain, microscopy); assay type: cell-based; settings: YCB/BSA, 48 hours, 2 μM and above
Procedure: Aliquots of cultures were removed after 48 hours, heat fixed on slides, and Gram stained (VWR Scientific, Inc., Boston, Mass.).

C. albicans ATCC 32354 [6] = test: Survival after lethal airway (intranasal) challenge in immunosuppressed mice; assay type: in vivo; settings: for ED50: Candida albicans, ATCC32354, ip, i.p. daily days 0-4, neutropenic mice, intranasal challenge, read-out: EC50 (survival, airway challenge)
Source text: (§3) To examine the role of the protease under conditions in which the challenge dose of C. albicans first has to cross the airway epithelium before it can disseminate, the following procedure was developed. To both mimic the immunosuppressed patient state and increase susceptibility of the test animals to C. albicans, mice were rendered neutropenic by treatment with cyclophosphamide, and received concurrent ciprofloxacin treatment to block opportunistic infection by endogenous gram negative flora.
(§4) Challenge inoculum was prepared by streaking Candida albicans (ATCC 32354) onto Sabouraud dextrose agar from a frozen glycerol stock and incubating overnight at 37° C. Five hours before challenge, the culture was re-streaked onto four Sabouraud dextrose agar slants and incubated (4 h. 37° C.). The culture was then washed from the agar slants with sterile saline, resuspended in fresh saline to achieve an A660nm of 0.2, and kept on ice until used. Fifty μl of a 10^-4 dilution of this challenge stock was plated to determine retrospectively the exact challenge dose in c.f.u. Female Swiss Webster mice (Charles River Breeding Laboratories, Inc., Wilmington, Mass., approx. 23 g, ten mice per group) received 125 mgKg^-1 cyclophosphamide i.p. in 0.2 ml of saline on days -5 and -3, 0, 2 and 4 of the study. On day 0, mice were anesthetized with 80 mgKg^-1 sodium pentobarbital i.p. and challenged intranasally with either 2.5×10^5 c.f.u. in 50 μl of saline or 50 μl of saline only (toxicity controls). On each of days 1 to 4 mice also received 50 mgKg^-1 Ciprofloxacin (i.p. in WFI/5% (w/v) glucose) to prevent bacterial infection in the immunocompromised mice. On days 0 to 4, groups of mice (n=10) received one of the following daily treatments (0.1 ml i.p.): saline, amphotericin B (0.1 to 1.0 mgKg^-1); and pepstatin A (0.06 to 6.0 mgKg^-1). Pepstatin A was dissolved in DMSO at 13.8 mgml^-1 and diluted 1:10 in saline for the 6 mgKg^-1 dose. Lower doses were diluted in normal saline serially from the 6 mgKg^-1 dose. Stock amphotericin B (5 mg/ml in WFI) was diluted in WFI containing 5% glucose. Treatment with drug on day zero was performed three hours prior to airway challenge with C. albicans. Survival was monitored for fifteen days following challenge. Toxicity controls were weighed daily over the duration of treatment. Animals from parallel groups (n=10) of mice were sacrificed at various stages and used to determine organ burdens and histopathology. Organ burdens were determined in parallel in 3 mice from parallel groups that were sacrificed on days 2, 4, and 17. Mice were anesthetized with sodium pentobarbital (80 mgKg^-1), bled by cardiac puncture, and then given a lethal dose of sodium pentobarbital. The kidneys, spleen, liver, and lungs were removed, weighed, and homogenized in 10 ml sterile PBS. Each organ homogenate (including heart blood) was serially diluted, plated on Sabauroud dextrose agar and incubated overnight at 37° C. Resulting colonies were counted to derive c.f.u./gram wet weight of organ.

C. albicans ATCC 32354 [7] = test: Organ burdens (c.f.u.) after intranasal challenge in immunosuppressed mice; assay type: in vivo; parameters: C. albicans, kidney / C. albicans, lungs: scale not given here
Procedure: as §4

C. albicans ATCC 32354 [8] = test: Histopathology of lung sections after airway challenge; assay type: in vivo, mice; settings: 0.06 and 0.6 mg/Kg^-1
Procedure: For histopathology, mice from above described groups (two mice per group) were sacrificed on days 2 and 4 by administration of a lethal dose of sodium pentobarbitol. The lungs, liver, kidneys, and spleen were removed intact, embedded in paraffin, sectioned (5 μm), and stained with ammoniacal silver to visualize the Candida. Slides were stained by immersing in 4% periodic acid for 5 minutes, rinsing in distilled water five times, then immersing in a solution of ammoniacal silver (0.1% silver nitrate, 0.02% lithium hydroxide monohydrate) that had been heated by microwave (420 W for 1 min). Slides were microwaved in this solution for one minute then allowed to remain in the hot solution for one more minute before rinsing four times in distilled water and toning in 0.2% gold chloride for thirty seconds. Slides were then rinsed twice in distilled water, placed in 2% sodium thiosulfate for thirty seconds, then rinsed three times and dehydrated through graded alcohols. Finally, slides were cleared in 3-4 changes of xylene and mounted with Permount.

C. albicans ATCC 32354 [9] = test: Mortality after intravenous challenge; assay type: in vivo, mice
Procedure: Female Swiss Webster mice (n=10 per treatment group) were challenged by tail vein injection with 10^6 c.f.u. Candida albicans ATCC 32354 in 0.2 ml saline and mortality was monitored over the following 14 days. Three hr prior to challenge with candida, and on days 1 to 5 post challenge with candida, mice also received one of the following compounds (i.p. in saline): saline alone; 0.6 mgKg^-1 pepstatin A, or 1 mgKg^-1 amphotericin B. Challenge inoculum containing C. albicans was prepared in the same manner as used for airway challenge experiments except that it was adjusted to a final A660nm of 2.0.

C. albicans [10] = settings: administered prior to i.v. challenge with C. albicans; cited from earlier work
C. albicans [11] = test: Control experiments with ciprofloxacin alone (data not shown); settings: ciprofloxacin by itself
Source text: as §3

[12] = 0.6 mg Kg^-1, 4 days post challenge

CC(C)CC(=O)N[C@H](C(=O)N[C@H](C(=O)N[C@@H](CC(C)C)[C@@H](O)CC(=O)N[C@@H](C)C(=O)N[C@@H](CC(C)C)[C@@H](O)CC(=O)O)C(C)C)C(C)C [pepstatin A] (Isovaleryl-VV[Sta]A[Sta]-OH)
IC50 ([1]; product eluting at 3.0 min, 15 min pre-incubation, 1 hr reaction, pH 4.4, read-out: I.C.50 Pepstatin): 9 nM
I.C.50 Pepstatin ([1]; product eluting at 4.2 min, N. I. = no inhibition): N. I.
IC50 ([2]; peak II enzyme, product eluting at 4.2 min, read-out: I.C.50 Pepstatin): 28 nM
IC50 ([3]; product eluting at 3.0 min): 29 nM
IC50 ([3]; product eluting at 4.2 min): 36 nM
inhibition at 2 µM (C. albicans ATCC 32354 [4]; Candida albicans, ATCC32354, YCB/BSA, 2 μM): ~90%
nature of growth effect (resuspension without inhibitor restored growth) (C. albicans ATCC 32354 [4]; YCB/BSA): fungistatic
A660 nm (C. albicans ATCC 32354 [4]; YCB/BSA, 145 hours in culture, 2.0 μM (control 1.97)): 0.18
A660 nm (C. albicans ATCC 32354 [4]; YCB/BSA, 145 hours in culture, 10.0 μM (control 1.97)): 0.17
inhibitory effect on growth in YD containing ammonium chloride (C. albicans ATCC 32354 [4]; YD + 40 mM ammonium chloride, up to 10 μM): no significant inhibitory effects
A660 nm (C. albicans ATCC 32354 [4]; YD + NH4Cl, 145 hours in culture, 2.0 μM (control 2.97)): 2.99
A660 nm (C. albicans ATCC 32354 [4]; YD + NH4Cl, 145 hours in culture, 10.0 μM (control 2.97)): 3.20
formation of hyphae in cultures (C. albicans ATCC 32354 [5]): inhibited the formation of hyphae
survival (C. albicans ATCC 32354 [6]; 0.6 mgKg^-1 i.p. daily days 0-4, airway challenge): 100%
ED50 (C. albicans ATCC 32354 [6]): ~0.06 mg/kg
protective effect upon pretreating mice (C. albicans ATCC 32354 [6]; airway challenge, dose-dependent, 0.06 to 0.6 mgKg^-1): strong protective effect
C. albicans, kidney (C. albicans ATCC 32354 [7]; 0.06 mg Kg^-1, 4 days post challenge (0 dose 39 ± 18.4)): 0.67 ± 0.15 c. f. u. g^-1 homogenized tiss
C. albicans, lungs (C. albicans ATCC 32354 [7]; 0.06 mg Kg^-1, 4 days post challenge (0 dose 4,540 ± 2,160)): 0.58 ± 0.39 c. f. u. g^-1 homogenized tiss
C. albicans, kidney (C. albicans ATCC 32354 [7]; [12]): 0.49 ± 0.22 c. f. u. g^-1 homogenized tiss
C. albicans, lungs (C. albicans ATCC 32354 [7]; [12]): 0.13 ± 0.19 c. f. u. g^-1 homogenized tiss
c.f.u. recovered from the kidneys (C. albicans ATCC 32354 [7]; all doses): a small number of c.f.u.'s were recovered
c.f.u. remaining in the lung tissue (C. albicans ATCC 32354 [7]; intranasal challenge): dramatically reduced
dissemination to the spleen and liver (C. albicans ATCC 32354 [7]; intranasal challenge): completely blocked dissemination
growth of C. albicans and hyphae formation in the lungs (histopathology) (C. albicans ATCC 32354 [8]): inhibited both the growth of C. albicans and hyphae formation
survival time post i.v. challenge (C. albicans ATCC 32354 [9]; 0.6 mgKg^-1 i.p.): did not survive past day two
protective effect, classical i.v. challenge protocol (C. albicans ATCC 32354 [9]; 0.6 mgKg^-1 i.p., 3 hr prior and days 1 to 5): no protective effect
reduced mortality in a statistically significant fashion (neither/nor = did not) (C. albicans [10]): neither

1{92S,4S,5S)-5-[(2S)-3-(tert-Butylsulphonyl)-2-(1-naphthylmethyl)propanoyl]-(2R)N-(tert-butoxycarbonyl)-2-amino-2-[2-(1,3-dithiolan-2-yl)]ethanoyl]amino-6-cyclohexyl-4-hydroxy-2-(1-methyl)ethyl-hexanoyl}-s-isoleucinyl-2-yridylamide [compound X]
IC50 ([2]; peak II protease, read-out: I.C.50, in vitro activity of the peak II protease): 110 nM
effect on growth of C. albicans in YCB/BSA (C. albicans ATCC 32354 [4]; YCB/BSA): blocked growth
A660 nm (C. albicans ATCC 32354 [4]; YCB/BSA, 168 hours in culture, 10 μM (no compound 3.13)): 0.26
protection against lethal airway challenge (C. albicans ATCC 32354 [6]; 0.1 mgKg^-1): Complete protection

C[C@@H]1[C@H](O)[C@@H](C)/C=C/C=C/C=C/C=C/C=C/C=C/C=C/[C@H](O[C@@H]2O[C@H](C)[C@@H](O)[C@H](N)[C@@H]2O)C[C@@H]2O[C@](O)(C[C@@H](O)C[C@@H](O)[C@H](O)CC[C@@H](O)C[C@@H](O)CC(=O)O[C@H]1C)C[C@H](O)[C@H]2C(=O)O [amphotericin B]
protection against lethal airway challenge (C. albicans ATCC 32354 [6]; 1 mgKg^-1 i.p. daily days 0-4, first dose 3 h before challenge): complete protection
ED50 (C. albicans ATCC 32354 [6]): ~0.1 mg/kg
survival rate after 14 days, i.v. challenge (C. albicans ATCC 32354 [9]; 1 mgKg^-1 i.p., 3 hr prior and days 1 to 5): 70%

O=C(O)c1cn(C2CC2)c2cc(N3CCNCC3)c(F)cc2c1=O [ciprofloxacin]
effect on C. albicans in vitro or in vivo (C. albicans [11]): no effect

Reference: patent US5833946A, “Dissemination of fungal infections: animal model and method of prophylaxis” (priority 1995, dated 1998)
